Entries after “also recorded” stand apart in the source; their conditions may differ.
Assays:
murine dendritic cells [1] = assay: TNF-alpha secretion by CpG-stimulated murine dendritic cells (ELISA); format: cell-based; conditions: stimulated overnight with graded doses of CpG, FIG. 1A
Protocol: (§1) Murine dendritic cells (FIG. 1A) or the murine macrophage-like cell line RAW264.7 cells (FIG. 1B) were cultured in the presence of sirtuin inhibitors as indicated or an equivalent amount of solvent (DMSO) and stimulated overnight with graded doses of CpG (FIG. 1A) or for 2 h with 100 ng/ml of lipopolysaccharide (LPS) from gram-negative bacteria. Cell supernatants were tested for tumor necrosis factor (TNF-alpha) content by ELISA.

[2] = tested on: murine macrophage-like cell line RAW264.7; assay: TNF-alpha secretion by LPS-stimulated RAW264.7 cells (ELISA); format: cell-based; conditions: stimulated 2 h with 100 ng/ml LPS, FIG. 1B
Protocol: as §1

murine dendritic cells [3] = assay: RANTES secretion by CpG-stimulated murine dendritic cells (ELISA); format: cell-based; conditions: inferred from RANTES secretion, FIG. 2
Protocol: Murine dendritic cells were cultured in the presence of sirtuin inhibitors as indicated and stimulated overnight with graded doses of CpG. Cell supernatants were tested for RANTES content by ELISA.

RAW264.7 = assay: TNF-alpha mRNA accumulation in LPS-stimulated RAW264.7 (quantitative RT-PCR); format: cell-based, murine; conditions: RAW264.7, stimulated 2 h by LPS, FIG. 3
Protocol: RAW264.7 were incubated in the presence of sirtuin inhibitors or equivalent doses of solvent (DMSO) as indicated and stimulated for 2 h by LPS. Expression of mRNA encoding for TNF-α was monitored using quantititative RT-PCR using standard procedures and the following forward and reverse primers (fwd: […]; rev: gctacgacgtgggctacag). […] Collectively, these observations indicate that sirtuin inhibitors may affect TNF-alpha secretion by interfering with at a post-transcriptional step.

SIRT1 = SIRT1 (Homo sapiens, UniProt Q96EB6); conditions: Howitz et al. 2003; cited from earlier work
Sequence of SIRT1 (Q96EB6 whole entry): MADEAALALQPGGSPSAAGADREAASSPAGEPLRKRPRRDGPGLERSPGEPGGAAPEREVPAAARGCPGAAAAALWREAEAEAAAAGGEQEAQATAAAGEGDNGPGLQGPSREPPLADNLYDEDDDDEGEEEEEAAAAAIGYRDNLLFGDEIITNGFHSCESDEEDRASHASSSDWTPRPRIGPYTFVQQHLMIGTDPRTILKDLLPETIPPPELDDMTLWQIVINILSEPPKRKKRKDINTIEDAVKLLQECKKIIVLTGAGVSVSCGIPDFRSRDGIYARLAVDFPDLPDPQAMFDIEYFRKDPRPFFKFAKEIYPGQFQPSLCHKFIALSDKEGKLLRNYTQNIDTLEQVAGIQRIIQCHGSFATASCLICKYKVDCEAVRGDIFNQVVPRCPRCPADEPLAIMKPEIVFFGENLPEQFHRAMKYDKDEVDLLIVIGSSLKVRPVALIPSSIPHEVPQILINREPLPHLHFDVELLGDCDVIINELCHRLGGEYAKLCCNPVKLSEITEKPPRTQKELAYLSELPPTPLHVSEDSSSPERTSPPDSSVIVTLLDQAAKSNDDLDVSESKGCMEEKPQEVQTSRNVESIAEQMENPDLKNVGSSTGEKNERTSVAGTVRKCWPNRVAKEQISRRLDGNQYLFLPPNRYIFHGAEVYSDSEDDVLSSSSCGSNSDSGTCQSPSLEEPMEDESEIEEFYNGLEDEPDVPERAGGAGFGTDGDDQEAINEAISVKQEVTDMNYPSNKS

[4] = Yang et al. 2007; cited from earlier work

Row | SMILES | TNF-alpha secretion (supernatant TNF-alpha content by ELISA) (murine dendritic cells [1]) | TNF-alpha secretion / cytokine production (supernatant TNF-alpha content by ELISA) [2] | general inhibition of protein synthesis or induction of cell death (murine dendritic cells [3]) | intracellular accumulation of TNF-alpha mRNA (RAW264.7) | inhibition of SIRT1 enzymatic activity (SIRT1) | release of inflammatory cytokines induced by cigarette smoke extracts [4]
1 | Oc1ccc2ccccc2c1Cc1c(O)nc(S)nc1-c1ccccc1 [cambinol, 5-((2-hydroxy-1-naphthyl)methyl)-2-mercapto-6-phenyl-4-pyrimidinol] | downregulation of TNF-alpha secretion | inhibit TNF-α protein synthesis; also recorded: downregulation of TNF-alpha secretion; also recorded: may downregulate TNF-alpha cytokine production | do not generally inhibit protein synthesis nor induce cell death | do not significantly affect TNF-alpha mRNA accumulation; also recorded: without significantly affecting the intracellular accumulation of TNF-alpha mRNA |  | 
2 | Cc1ccc(C(=O)Nc2ccc(S(=O)(=O)O)c3cc(S(=O)(=O)O)cc(S(=O)(=O)O)c23)cc1NC(=O)c1cccc(NC(=O)Nc2cccc(C(=O)Nc3cc(C(=O)Nc4ccc(S(=O)(=O)O)c5cc(S(=O)(=O)O)cc(S(=O)(=O)O)c45)ccc3C)c2)c1 [suramin] |  |  |  |  | found to inhibit SIRT1 enzymatic activity | 
3 | CC(NC(=O)c1ccccc1/N=C/c1c(O)ccc2ccccc12)c1ccccc1 (stereo not shown) [sirtinol, 2-[(2-Hydroxynaphthalen-1-ylmethylene)amino]-N-(1-phenethyl)benzamide] | downregulation of TNF-alpha secretion | inhibit TNF-α protein synthesis; also recorded: downregulation of TNF-alpha secretion; also recorded: may downregulate TNF-alpha cytokine production | do not generally inhibit protein synthesis nor induce cell death | do not significantly affect TNF-alpha mRNA accumulation; also recorded: without significantly affecting the intracellular accumulation of TNF-alpha mRNA |  | could increase the release of inflammatory cytokines
